The values that follow come from PubChem BioAssay AID2060496 (Molecular Pharmacology Branch, DTP, NCI, 2025).

Values joined by “and” are separate entries in the source; they are usually repeats but may differ in a detail not shown here. Equal values may be shown once.

In the test the test system is 276233-004-R-J1-PDC complex spheroid viability. Briefly: Anticancer human tumor 276233-004-R-J1-PDC patient-derived colon adenocarcinoma cell line growth inhibition [GQUAD]. To be noted: for viability, T/C: stronger effect = lower value. The source says: DNA G-quadruplex Stabilizer Agents in Combinations in Complex Spheroids
A high-throughput screen of multi-cell type tumor spheroids was designed to identify active combinations of DNA G-quadruplex stabilizer agents and targeted small molecules. Complex spheroids include a stromal component modeled by human endothelial cells (HUVEC) and fibroblasts modeled by human mesenchymal stem cells (MSCs). The concentration ranges selected for each drug and investigational agent were based upon clinically achievable concentrations if the clinical Cmax of the agent was known.
Compounds. The drugs and investigational agents: pidnarulex (CX-5461; NSC782164), APTO-253 (NSC789042), BRACO-19 (NSC847499), peposertib (NSC802822), ceralasertib (NSC780249), elimusertib (NSC800525), camonsertib (NSC841442), AZD-1390 (NSC803789), olaparib (NSC753686), talazoparib (NSC767125), ART-558 (NSC835418), sotorasib (NSC818433), MRTX-1133 (NSC836407), SN-38 (NSC673596), topotecan (NSC609699), etoposide (NSC141540), doxorubicin (NSC123127), gemcitabine (NSC613327), 5-fluorouracil (NSC19893), paclitaxel (NSC125973), vemurafenib (NSC761431), panobinostat (NSC761190), R-306465 (JNJ-16241199; NSC773264), adavosertib (NSC754352), TP-3654 (NSC805149), carboplatin (NSC241240), KSQ-4279 (NSC840948), and staurosporine (NSC755774) were obtained from the National Cancer Institute (NCI) Developmental Therapeutics Program Chemical Repository (34). The FDA-approved anticancer drug set is available from the NCI Developmental Therapeutics Program. […] The stock solutions were prepared in dimethyl sulfoxide (DMSO, Sigma-Aldrich, St. Louis, MO, cat. D2650) at 800-fold the tested concentration and stored at -70 degrees C prior to their use. All drugs and investigational agents were tested over a range starting from a high concentration at or near the clinical Cmax and decreasing in half-log increments. If the clinical Cmax for an agent had not been determined, the highest concentration tested was 10 microM.
2.3 Cell Culture. All cells were maintained in an incubator at 37 degrees C and 5% CO2 with 95% humidity. The PDC lines were cultured according to standard operating procedures established by the NCI PDMR. All PDCs were thawed and cultured in Matrigel-coated flasks prepared with a working solution of 1X Ham's F-12 nutrient mix, without supplementation (Invitrogen, cat. 11765054), 100 U/mL penicillin-streptomycin (Invitrogen, cat. 15140122), and 2.5% Matrigel (Corning Inc., cat. 354248) for the first three passages. The 857933-349-R-J2-PDC line was cultured in 6C/Colon 1B media, which includes advanced DMEM/F-12 (Thermo Fisher Scientific, cat. 12634028), 10 mM HEPES (Thermo Fisher Scientific, cat. 15630080), 1X GlutaMAX supplement (Thermo Fisher Scientific, cat. 35050061), 0.1 mg/mL primocin (InvivoGen, cat. ant-pm-2), 10% defined fetal bovine serum, heat inactivated (HyClone Laboratories Inc., cat. SH30070.03HI), 50% L-WRN conditioned media (ATCC, cat. CRL-3276), 1.25 mM N-Acetyl-L-cysteine (Sigma-Aldrich, cat. A9165), 10 mM nicotinamide (Sigma-Aldrich, cat. N0636), 1X B-27 supplement (Thermo Fisher Scientific, cat. 17504044), 1X N-2 supplement (Thermo Fisher Scientific, cat. 17502048), 10 microM Y-27632 dihydrochloride (Tocris Bioscience, cat. 1254), and 50 ng/mL human EGF recombinant protein (Thermo Fisher Scientific, cat. PHG0311). The 485176-168-R4-J1-PDC line was cultured in Panc media, which includes all 6C/Colon 1B media components plus 100 ng/mL human FGF-10 (Thermo Fisher Scientific, cat. 100-26), 500 nM SB-431542 (Selleckchem, cat. S1067), and gastrin (Tocris, cat. 3006).
[…]

Where [1] appears, read: curve of first compound, second compound 0.0316 µM.
Where [2] appears, read: curve of first compound, second compound 0.1 µM.
Setting [3] is: curve of first compound, second compound 0.316 µM.
[4] abbreviates: curve of first compound, second compound 1 µM.
Setting [5] is: curve of first compound, second compound 3.16 µM.
[6] abbreviates: curve of first compound, second compound 10 µM.
The mark [7] stands for this setting: second compound 0.0316 µM, first compound 0.0316 µM.
[8] abbreviates: second compound 0.0316 µM, first compound 0.316 µM.
Where [9] appears, read: second compound 0.1 µM, first compound 0.0316 µM.
[10] abbreviates: second compound 0.1 µM, first compound 0.316 µM.
Where [11] appears, read: second compound 0.316 µM, first compound 0.0316 µM.
Where [12] appears, read: second compound 0.316 µM, first compound 0.316 µM.
[13] abbreviates: second compound 1 µM, first compound 0.0316 µM.
[14] abbreviates: second compound 1 µM, first compound 0.316 µM.
[15] abbreviates: second compound 3.16 µM, first compound 0.0316 µM.
[16] abbreviates: second compound 3.16 µM, first compound 0.316 µM.
Setting [17] is: second compound 10 µM, first compound 0.0316 µM.
The mark [18] stands for this setting: second compound 10 µM, first compound 0.316 µM.
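Note: spheroids exposed to drugs for seven days.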

Usually viability, T/C stands for the result in the treated group divided by that in the control group, in per cent. As a reminder, the IC50 is the point on the concentration scale where inhibition reaches its midpoint. In the case of `Cn1ncnc1[C@H]1c2n[nH]c(=O)c3cc(F)cc(c23)N[C@@H]1c1ccc(F)cc1`, the viability, T/C was 108% and 94.2% and 85.9% (compound 0.000999 µM); 84.1% and 111% and 82.8% (compound 0.00316 µM); 97.9% and 83.5% and 81.7% (compound 0.00999 µM); 80% and 83.1% and 87.4% (compound 0.0316 µM); 108% and 84.9% and 87.8% (compound 0.0999 µM); 102% and 89.6% and 80.9% (compound 0.316 µM). For the same compound, the IC50 (curve of compound) is greater than 0.316 µM.

In the case of `COc1cccc2c1C(=O)c1c(O)c3c(c(O)c1C2=O)CC(O)(C(=O)CO)CC3OC1CC(N)C(O)C(C)O1` (stereo not drawn), the viability, T/C reads like this: (compound 0.0316 µM) 90.2% and 99.5% and 87%; (compound 0.1 µM) 90.8% and 78.6% and 69.9%; (compound 0.316 µM) 84.7% and 99.6% and 86.4%; (compound 1 µM) 67.4% and 66.3% and 80.7%; (compound 3.16 µM) 49.4% and 58.4% and 58.3%; (compound 10 µM) 44.2% and 70.7% and 49.6%. For the setting “curve of compound”, the IC50 is 3.04 µM and > 10 µM and 9.44 µM.

As to `Cn1ncnc1[C@H]1c2n[nH]c(=O)c3cc(F)cc(c23)N[C@@H]1c1ccc(F)cc1` + Cc1[nH]c2ccc(F)cc2c1-c1nc2c3cccnc3c3ncccc3c2[nH]1, the concentration for half-maximal inhibition (IC50) was greater than 0.316 µM under setting [1]; greater than 0.316 µM under setting [2]; greater than 0.316 µM under setting [3]; greater than 0.316 µM under setting [4]; greater than 0.316 µM under setting [5]; less than 0.000999 µM under setting [6]. Besides, the viability, T/C is, setting by setting: (second compound 0.0316 µM, first compound 0.000999 µM) 89%; (second compound 0.0316 µM, first compound 0.00316 µM) 99.2%; (second compound 0.0316 µM, first compound 0.00999 µM) 104%; under setting [7], 94.1%; (second compound 0.0316 µM, first compound 0.0999 µM) 95.6%; under setting [8], 90.7%. The viability, T/C reads like this: (second compound 0.1 µM, first compound 0.000999 µM) 91.2%; (second compound 0.1 µM, first compound 0.00316 µM) 97.8%; (second compound 0.1 µM, first compound 0.00999 µM) 99.9%; under setting [9], 88.5%; (second compound 0.1 µM, first compound 0.0999 µM) 98%; under setting [10], 94.8%. The viability, T/C was 94.7% (second compound 0.316 µM, first compound 0.000999 µM); 79.9% (second compound 0.316 µM, first compound 0.00316 µM); 86.6% (second compound 0.316 µM, first compound 0.00999 µM); 99.2% under setting [11]; 100% (second compound 0.316 µM, first compound 0.0999 µM); 93% under setting [12]. The viability, T/C is 63.5% (second compound 1 µM, first compound 0.000999 µM); 66.6% (second compound 1 µM, first compound 0.00316 µM); 78.7% (second compound 1 µM, first compound 0.00999 µM); 72.7% under setting [13]; 70.6% (second compound 1 µM, first compound 0.0999 µM); 84.7% under setting [14]. The viability, T/C is 56.3% (second compound 3.16 µM, first compound 0.000999 µM); 66.5% (second compound 3.16 µM, first compound 0.00316 µM); 49.2% (second compound 3.16 µM, first compound 0.00999 µM); 54.2% under setting [15]; 60.4% (second compound 3.16 µM, first compound 0.0999 µM); 57.4% under setting [16]. Further, the viability, T/C is, setting by setting: (second compound 10 µM, first compound 0.000999 µM) 50.3%; (second compound 10 µM, first compound 0.00316 µM) 47.3%; (second compound 10 µM, first compound 0.00999 µM) 50.5%; under setting [17], 62.7%; (second compound 10 µM, first compound 0.0999 µM) 62%; under setting [18], 44.2%.

Turning to `O=c1[nH]cc(F)c(=O)[nH]1` + Cc1[nH]c2ccc(F)cc2c1-c1nc2c3cccnc3c3ncccc3c2[nH]1, the IC50 under setting [1] is greater than 10 µM; the IC50 under setting [2] is greater than 10 µM; the IC50 under setting [3] was greater than 10 µM; the IC50 under setting [4] was greater than 10 µM; the 50% inhibitory concentration (IC50) under setting [5] is greater than 10 µM; the half-maximal inhibitory concentration (IC50) under setting [6] is less than 0.0316 µM. The viability, T/C by setting is: under setting [7], 71.4%; (second compound 0.0316 µM, first compound 0.1 µM) 85.6%; under setting [8], 92.9%; (second compound 0.0316 µM, first compound 1 µM) 76.8%; (second compound 0.0316 µM, first compound 3.16 µM) 77.5%; (second compound 0.0316 µM, first compound 10 µM) 100%. Further, the viability, T/C is 79.3% under setting [9]; 97.2% (second compound 0.1 µM, first compound 0.1 µM); 88.9% under setting [10]; 82.7% (second compound 0.1 µM, first compound 1 µM); 83% (second compound 0.1 µM, first compound 3.16 µM); 80% (second compound 0.1 µM, first compound 10 µM). The viability, T/C under setting [11] is 75.7%; the viability, T/C (second compound 0.316 µM, first compound 0.1 µM) is 91.2%; the viability, T/C under setting [12] was 80.4%; the viability, T/C (second compound 0.316 µM, first compound 1 µM) is 94%; the viability, T/C (second compound 0.316 µM, first compound 3.16 µM) was 74.5%; the viability, T/C (second compound 0.316 µM, first compound 10 µM) is 85.3%. For the same compound, the viability, T/C is 57.3% under setting [13]; 63% (second compound 1 µM, first compound 0.1 µM); 73.1% under setting [14]; 65.6% (second compound 1 µM, first compound 1 µM); 70.8% (second compound 1 µM, first compound 3.16 µM); 73.3% (second compound 1 µM, first compound 10 µM). The viability, T/C is, setting by setting: under setting [15], 54.6%; (second compound 3.16 µM, first compound 0.1 µM) 49.9%; under setting [16], 48.5%; (second compound 3.16 µM, first compound 1 µM) 48%; (second compound 3.16 µM, first compound 3.16 µM) 53.8%; (second compound 3.16 µM, first compound 10 µM) 51.9%. Moreover, the viability, T/C is 41.2% under setting [17]; 46.7% (second compound 10 µM, first compound 0.1 µM); 43.2% under setting [18]; 44.5% (second compound 10 µM, first compound 1 µM); 45.3% (second compound 10 µM, first compound 3.16 µM); 42.9% (second compound 10 µM, first compound 10 µM).

Consider `CN(C)c1ccc(Nc2c3ccc(NC(=O)CCN4CCCC4)cc3nc3cc(NC(=O)CCN4CCCC4)ccc23)cc1`, for which the viability, T/C was 65% [middle of 12 runs] (compound 0.316 µM), 64.4% [middle of 12 runs] (compound 1 µM), 61.7% [middle of 12 runs] (compound 3.16 µM) and 49.8% [middle of 12 runs] (compound 10 µM). Also, the IC50 (compound alone, run of 02/26/2024) was > 10 µM and 4.02 µM and 5.57 µM.
